Laboratory results taken from patent publication US12139520B2 (priority 2020, dated 2024).
Numbered stars: 1 amine (or outer) side, 2 acyl side, 3 side chain; on linkers, the order of the positions; unused ones are H or OH. Bridge positions count the residues as written; N and C are the ends. Square brackets hold non-standard residues; d marks the D form. Side chains are listed from the residue outwards. Peptide text beside a SMILES is read from it. * marks the point of attachment. C20 diacid = O=C(O)CCCCCCCCCCCCCCCCCCC(=O)*; γGlu = O=C(O)[C@H](CCC(=O)[*:2])N[*:1]; Hyp = O=C(O)[C@@H]1C[C@@H](O)CN1; AEEA = NCCOCCOCC(=O)O

Tests used:
hAMY3 receptor = biological target: T1, hAMY3 receptor (Homo sapiens, UniProt O60896+P30988); assay: cAMP assay for in vitro receptor activation, hAMY3-R; type: cell-based; details: cAMP assay, hAMY3 receptor; read-out: hAMY3R EC50
T1 sequence (P30988 25-474): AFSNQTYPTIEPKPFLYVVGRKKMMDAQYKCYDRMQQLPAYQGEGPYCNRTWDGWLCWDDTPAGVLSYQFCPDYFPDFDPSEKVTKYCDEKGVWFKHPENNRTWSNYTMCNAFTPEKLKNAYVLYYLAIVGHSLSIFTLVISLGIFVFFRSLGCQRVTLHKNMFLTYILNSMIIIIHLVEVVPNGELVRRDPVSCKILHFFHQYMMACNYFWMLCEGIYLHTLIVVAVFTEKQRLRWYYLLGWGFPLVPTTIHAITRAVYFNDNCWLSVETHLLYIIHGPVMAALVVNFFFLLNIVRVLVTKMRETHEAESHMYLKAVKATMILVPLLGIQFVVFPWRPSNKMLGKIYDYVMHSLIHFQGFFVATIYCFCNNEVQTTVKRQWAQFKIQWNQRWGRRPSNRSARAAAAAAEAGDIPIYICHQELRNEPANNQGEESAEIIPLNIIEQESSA
T1 sequence (O60896 24-148 partner): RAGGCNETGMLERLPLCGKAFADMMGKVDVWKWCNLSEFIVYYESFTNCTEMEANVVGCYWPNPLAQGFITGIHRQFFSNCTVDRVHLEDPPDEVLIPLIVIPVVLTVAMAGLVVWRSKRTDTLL
In short: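 Read-out is TR-FRET cAMP signal, recorded one hour after reagent addition, following 30 min room-temperature stimulation of stable hAMY3 cells with graded compound doses in casein/IBMX (0.5 mM) buffer.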

hAM1 receptor = hAM1 receptor (Homo sapiens, UniProt O60895+Q16602); assay: cAMP assay for in vitro receptor activation, hAM1-R; type: cell-based; details: cAMP assay, hAM1 receptor; read-out: hAM1R EC50
Experimental: General Protocols for cAMP Assays for Measuring In Vitro Receptor Activation
Cells stably overexpressing the hAM1 receptor were obtained from Ogeda (now Astellas Pharma), sub-cloned and a monoclonal cell-line with an appropriate assay-window was expanded, aliquoted and frozen. An aliquot was thawed and plated in DPBS with 0.05% casein and 0.5 mM IBMX as 8000 cells/well in a 384-well format.

Sequence of hAM1 receptor (Q16602 23-461): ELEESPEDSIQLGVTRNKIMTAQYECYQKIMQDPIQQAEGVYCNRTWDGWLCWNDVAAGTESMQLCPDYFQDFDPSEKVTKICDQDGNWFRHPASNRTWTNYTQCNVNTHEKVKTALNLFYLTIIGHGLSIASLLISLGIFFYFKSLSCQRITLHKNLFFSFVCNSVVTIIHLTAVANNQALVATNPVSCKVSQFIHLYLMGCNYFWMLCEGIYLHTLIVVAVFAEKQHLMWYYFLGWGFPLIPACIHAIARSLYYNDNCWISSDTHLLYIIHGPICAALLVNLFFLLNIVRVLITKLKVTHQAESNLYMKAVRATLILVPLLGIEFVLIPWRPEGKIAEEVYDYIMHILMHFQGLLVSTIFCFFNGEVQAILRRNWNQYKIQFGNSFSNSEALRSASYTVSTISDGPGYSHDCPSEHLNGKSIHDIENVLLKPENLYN
Sequence of hAM1 receptor (O60895 43-175 partner): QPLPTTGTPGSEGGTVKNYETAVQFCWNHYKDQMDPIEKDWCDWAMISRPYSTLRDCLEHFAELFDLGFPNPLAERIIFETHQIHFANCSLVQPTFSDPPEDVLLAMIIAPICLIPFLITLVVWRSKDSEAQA

| SMILES | EC50 (hAMY3 receptor) [nM] | EC50 (hAM1 receptor) [nM] |
| --- | --- | --- |
| CC[C@H](C)[C@H](NC(=O)[C@H](CCC(N)=O)NC(=O)[C@H](Cc1c[nH]cn1)NC(=O)[C@H](C)NC(=O)[C@H](CC(C)C)NC(=O)[C@H](CCCNC(=N)N)NC(=O)[C@H](C)NC(=O)[C@@H](NC(=O)[C@@H](NC(=O)[C@@H]1CSSC[C@H](NC(=O)[C@H](CCCCN)NC(=O)CC[C@H](NC(=O)CCCCCCCCCCCCCCCCCCC(=O)O)C(=O)O)C(=O)N[C@@H](CC(N)=O)C(=O)N[C@@H]([C@@H](C)O)C(=O)N[C@@H](C)C(=O)N[C@@H]([C@@H](C)O)C(=O)N1)[C@@H](C)O)C(C)C)C(=O)N[C@@H](CC(N)=O)C(=O)N[C@@H](CCC(N)=O)C(=O)N[C@@H](Cc1ccccc1)C(=O)N[C@H](C(=O)N[C@@H](CC(=O)O)C(=O)N[C@@H](CCCCN)C(=O)N[C@@H](CC(=O)O)C(=O)N[C@@H](CCCCN)C(=O)N[C@@H](CC(=O)O)C(=O)N[C@@H](CC(N)=O)C(=O)N[C@H](C(=O)N[C@@H](C)C(=O)N1CCC[C@H]1C(=O)N1CCC[C@H]1C(=O)N[C@H](C(=O)N[C@@H](CC(N)=O)C(=O)N[C@H](C(=O)NCC(=O)N[C@@H](CO)C(=O)N[C@@H](CC(N)=O)C(=O)NCC(=O)N1C[C@H](O)C[C@H]1C(N)=O)C(C)C)[C@@H](C)O)C(C)C)[C@@H](C)O [compound 86] ({C20 diacid-γGlu}-KCNTATCTVARLAHQINQFTDKDKDNVAPPTNVGSNG[Hyp]-NH2; disulfide 2-7) | 0.015 | > 5000 |
| CC[C@H](C)[C@H](NC(=O)[C@H](CCC(N)=O)NC(=O)[C@H](CCC(=O)O)NC(=O)[C@H](C)NC(=O)[C@H](CC(C)C)NC(=O)[C@H](CCCNC(=N)N)NC(=O)[C@H](CCC(N)=O)NC(=O)[C@@H](NC(=O)[C@@H](NC(=O)[C@@H]1CSSC[C@H](NC(=O)[C@@H](N)CCCCN)C(=O)N[C@@H](CC(N)=O)C(=O)N[C@@H]([C@@H](C)O)C(=O)N[C@@H](C)C(=O)N[C@@H]([C@@H](C)O)C(=O)N1)[C@@H](C)O)C(C)C)C(=O)N[C@@H](CCCCNC(=O)COCCOCCNC(=O)COCCOCCNC(=O)CC[C@H](NC(=O)CCCCCCCCCCCCCCCCCCC(=O)O)C(=O)O)C(=O)N[C@@H](CCC(N)=O)C(=O)N[C@@H](Cc1ccccc1)C(=O)N[C@H](C(=O)N[C@@H](CC(=O)O)C(=O)N[C@@H](CCCCN)C(=O)N[C@@H](CC(=O)O)C(=O)N[C@@H](CCCCN)C(=O)N[C@@H](CC(=O)O)C(=O)N[C@@H](CC(N)=O)C(=O)N[C@H](C(=O)N[C@@H](C)C(=O)N1CCC[C@H]1C(=O)N1CCC[C@H]1C(=O)N[C@H](C(=O)N[C@@H](CC(N)=O)C(=O)N[C@H](C(=O)NCC(=O)N[C@@H](CO)C(=O)N[C@@H](CC(N)=O)C(=O)NCC(=O)N1C[C@H](O)C[C@H]1C(N)=O)C(C)C)[C@@H](C)O)C(C)C)[C@@H](C)O [compound 136] (H-KCNTATCTVQRLAEQIK([AEEA-AEEA-γGlu-C20 diacid])QFTDKDKDNVAPPTNVGSNG[Hyp]-NH2; disulfide 2-7; N-terminus assumed) | 0.033 | > 5000 |
| CC[C@H](C)[C@H](NC(=O)[C@H](CCC(N)=O)NC(=O)[C@H](CCC(=O)O)NC(=O)[C@H](C)NC(=O)[C@H](CC(C)C)NC(=O)[C@H](CCCNC(=N)N)NC(=O)[C@H](CCC(N)=O)NC(=O)[C@@H](NC(=O)[C@@H](NC(=O)[C@@H]1CSSC[C@H](NC(=O)[C@@H](N)CCCCN)C(=O)N[C@@H](CC(N)=O)C(=O)N[C@@H](C)C(=O)N[C@@H](C)C(=O)N[C@@H]([C@@H](C)O)C(=O)N1)[C@@H](C)O)C(C)C)C(=O)N[C@@H](Cc1ccc(O)cc1)C(=O)N[C@@H](CCC(N)=O)C(=O)N[C@@H](Cc1ccccc1)C(=O)N[C@H](C(=O)N[C@@H](CC(=O)O)C(=O)N[C@@H](CCCCN)C(=O)N[C@@H](CC(=O)O)C(=O)N[C@@H](CCCCN)C(=O)N[C@@H](CC(=O)O)C(=O)N[C@@H](CC(N)=O)C(=O)N[C@H](C(=O)N[C@@H](C)C(=O)N1CCC[C@H]1C(=O)N1CCC[C@H]1C(=O)N[C@H](C(=O)N[C@@H](CC(N)=O)C(=O)N[C@H](C(=O)NCC(=O)N[C@@H](CO)C(=O)N[C@@H](CC(N)=O)C(=O)NCC(=O)N1C[C@H](O)C[C@H]1C(N)=O)C(C)C)[C@@H](C)O)C(C)C)[C@@H](C)O [compound 101] (H-KCNAATCTVQRLAEQIYQFTDKDKDNVAPPTNVGSNG[Hyp]-NH2; disulfide 2-7; N-terminus assumed) | 0.017 | > 5000 |
| CC[C@H](C)[C@H](NC(=O)[C@H](CCC(N)=O)NC(=O)[C@H](Cc1c[nH]cn1)NC(=O)[C@H](C)NC(=O)[C@H](CC(C)C)NC(=O)[C@H](CCCNC(=N)N)NC(=O)[C@H](CCC(N)=O)NC(=O)[C@@H](NC(=O)[C@@H](NC(=O)[C@@H]1CSSC[C@H](NC(=O)[C@H](CCCCN)NC(=O)CC[C@H](NC(=O)CCCCCCCCCCCCCCCCCCC(=O)O)C(=O)O)C(=O)N[C@@H](CC(N)=O)C(=O)N[C@@H]([C@@H](C)O)C(=O)N[C@@H](C)C(=O)N[C@@H]([C@@H](C)O)C(=O)N1)[C@@H](C)O)C(C)C)C(=O)N[C@@H](C)C(=O)N[C@@H](CCC(N)=O)C(=O)N[C@@H](Cc1ccccc1)C(=O)N[C@H](C(=O)N[C@@H](CC(=O)O)C(=O)N[C@@H](CCCCN)C(=O)N[C@@H](CC(=O)O)C(=O)N[C@@H](CCCCN)C(=O)N[C@@H](CC(=O)O)C(=O)N1CCC[C@H]1C(=O)N[C@H](C(=O)N[C@@H](C)C(=O)N1CCC[C@H]1C(=O)N1CCC[C@H]1C(=O)N[C@H](C(=O)N[C@@H](CC(N)=O)C(=O)N[C@H](C(=O)NCC(=O)N[C@@H](CO)C(=O)N[C@@H](CC(N)=O)C(=O)N[C@@H](CO)C(=O)N1C[C@H](O)C[C@H]1C(N)=O)C(C)C)[C@@H](C)O)C(C)C)[C@@H](C)O [compound 120] ({C20 diacid-γGlu}-KCNTATCTVQRLAHQIAQFTDKDKDPVAPPTNVGSNS[Hyp]-NH2; disulfide 2-7) | 0.025 | > 5000 |

More lines, in order of falling EC50 (hAMY3 receptor), values ahead:

| EC50 (hAMY3 receptor) [nM] | EC50 (hAM1 receptor) [nM] | SMILES |
| --- | --- | --- |
| 0.048 | > 5000 | CC[C@H](C)[C@H](NC(=O)[C@H](CCC(N)=O)NC(=O)[C@H](Cc1c[nH]cn1)NC(=O)[C@H](C)NC(=O)[C@H](CC(C)C)NC(=O)[C@H](CCCNC(=N)N)NC(=O)[C@@H](NC(=O)[C@@H](NC(=O)[C@@H](NC(=O)[C@@H]1CSSC[C@H](NC(=O)[C@H](CCCCN)NC(=O)CC[C@H](NC(=O)CCCCCCCCCCCCCCCCCCC(=O)O)C(=O)O)C(=O)N[C@@H](CC(N)=O)C(=O)N[C@@H]([C@@H](C)O)C(=O)N[C@@H](C)C(=O)N[C@@H]([C@@H](C)O)C(=O)N1)[C@@H](C)O)C(C)C)[C@@H](C)CC)C(=O)N[C@@H](Cc1ccc(O)cc1)C(=O)N[C@@H](CCC(N)=O)C(=O)N[C@@H](Cc1ccccc1)C(=O)N[C@H](C(=O)N[C@@H](CC(=O)O)C(=O)N[C@@H](CCCCN)C(=O)N[C@@H](CC(=O)O)C(=O)N[C@@H](CCCCN)C(=O)N[C@@H](CC(=O)O)C(=O)N[C@@H](CC(N)=O)C(=O)N[C@H](C(=O)N[C@@H](C)C(=O)N1CCC[C@H]1C(=O)N1CCC[C@H]1C(=O)N[C@H](C(=O)N[C@@H](CC(N)=O)C(=O)N[C@H](C(=O)NCC(=O)N[C@@H](CO)C(=O)N[C@@H](CC(N)=O)C(=O)NCC(=O)N1C[C@H](O)C[C@H]1C(N)=O)C(C)C)[C@@H](C)O)C(C)C)[C@@H](C)O [compound 159] ({C20 diacid-γGlu}-KCNTATCTVIRLAHQIYQFTDKDKDNVAPPTNVGSNG[Hyp]-NH2; disulfide 2-7) |
| 0.03 | > 5000 | CC[C@H](C)[C@H](NC(=O)[C@H](CCC(N)=O)NC(=O)[C@H](Cc1c[nH]cn1)NC(=O)[C@H](C)NC(=O)[C@H](CC(C)C)NC(=O)[C@H](CCCNC(=N)N)NC(=O)[C@H](CC(=O)O)NC(=O)[C@@H](NC(=O)[C@@H](NC(=O)[C@@H]1CSSC[C@H](NC(=O)[C@H](CCCCN)NC(=O)CC[C@H](NC(=O)CCCCCCCCCCCCCCCCCCC(=O)O)C(=O)O)C(=O)N[C@@H](CC(N)=O)C(=O)N[C@@H]([C@@H](C)O)C(=O)N[C@@H](C)C(=O)N[C@@H]([C@@H](C)O)C(=O)N1)[C@@H](C)O)C(C)C)C(=O)N[C@@H](C)C(=O)N[C@@H](CCC(N)=O)C(=O)N[C@@H](Cc1ccccc1)C(=O)N[C@H](C(=O)N[C@@H](CC(=O)O)C(=O)N[C@@H](CCCCN)C(=O)N[C@@H](CC(=O)O)C(=O)N[C@@H](CCCCN)C(=O)N[C@@H](CC(=O)O)C(=O)N1CCC[C@H]1C(=O)N[C@H](C(=O)N[C@@H](C)C(=O)N1CCC[C@H]1C(=O)N1CCC[C@H]1C(=O)N[C@H](C(=O)N[C@@H](CC(N)=O)C(=O)N[C@H](C(=O)NCC(=O)N[C@@H](CO)C(=O)N[C@@H](CC(N)=O)C(=O)NCC(=O)N1C[C@H](O)C[C@H]1C(N)=O)C(C)C)[C@@H](C)O)C(C)C)[C@@H](C)O [compound 130] ({C20 diacid-γGlu}-KCNTATCTVDRLAHQIAQFTDKDKDPVAPPTNVGSNG[Hyp]-NH2; disulfide 2-7) |
